The structures appear in SMILES notation.

Consider 1 molecule from patent publication US20240082244A1, “PHARMACEUTICAL FORMULATION” (Redx Pharma PLC, priority 2021, published 2024).

The nature of the data set: Experimental stability/excipient compatibility study of prototype formulation. Type of data set: physicochemical. Conditions: with Vitamin E polyethylene glycol succinate and gelatin capsule shell; 25° C./60% RH and 40° C./75% RH over a 1-month period. An excerpt: A homogeneous solution of Compound I is formed with the Vitamin E polyethylene glycol succinate (TPGS), which enables good uniformity of content to be achieved at low strengths.

In the case of `Cc1c(-c2ccnc(C(F)(F)F)c2)ncn1CC(=O)Nc1ccc(-c2cnccn2)cn1` [Compound I], the “Degradation of Compound I in prototype formulation” value was “No significant degradation”.
